Measurements from PubChem BioAssay (NCI).
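Grown in 96-well plates, cells were treated for 48 hours with each compound at five concentrations. Insufficient inhibition: endpoint recorded as highest concentration tested. At the GI50, growth is halved. Definition used: TGI = concentration required for complete inhibition of growth.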

Key:
Experiment in all cases: NCI-60 cell line screen, 48 h
SF-295 CNS = test system: SF-295 CNS
ACHN renal = test system: ACHN renal
SK-MEL-2 melanoma = test system: SK-MEL-2 melanoma
MDA-MB-435 = test system: MDA-MB-435
UACC-257 melanoma = test system: UACC-257 melanoma
SF-539 CNS = test system: SF-539 CNS
HCC-2998 colon = test system: HCC-2998 colon
SK-MEL-28 melanoma = test system: SK-MEL-28 melanoma
EKVX NSCLC = test system: EKVX NSCLC
HL-60(TB) leukemia = test system: HL-60(TB) leukemia
SF-268 CNS = test system: SF-268 CNS
SNB-75 CNS = test system: SNB-75 CNS
MCF7 breast = test system: MCF7 breast
T-47D breast = test system: T-47D breast
OVCAR-3 ovarian = test system: OVCAR-3 ovarian
DU-145 prostate = test system: DU-145 prostate
A549 NSCLC = test system: A549 NSCLC
SNB-19 CNS = test system: SNB-19 CNS
SW-620 colon = test system: SW-620 colon
HCT-15 colon = test system: HCT-15 colon
SK-OV-3 ovarian = test system: SK-OV-3 ovarian
RXF 393 renal = test system: RXF 393 renal
MOLT-4 leukemia = test system: MOLT-4 leukemia
HOP-62 NSCLC = test system: HOP-62 NSCLC
BT-549 breast = test system: BT-549 breast
U251 CNS = test system: U251 CNS
HOP-92 NSCLC = test system: HOP-92 NSCLC
RPMI-8226 leukemia = test system: RPMI-8226 leukemia
HS 578T breast = test system: HS 578T breast
UACC-62 melanoma = test system: UACC-62 melanoma
SR leukemia = test system: SR leukemia
786-0 renal = test system: 786-0 renal
COLO 205 colon = test system: COLO 205 colon
NCI-H522 lung = test system: NCI-H522 lung
HCT-116 colon = test system: HCT-116 colon
K-562 leukemia = test system: K-562 leukemia
M14 melanoma = test system: M14 melanoma
SN12C renal = test system: SN12C renal
A498 renal = test system: A498 renal
OVCAR-5 ovarian = test system: OVCAR-5 ovarian
PC-3 prostate = test system: PC-3 prostate
CCRF-CEM leukemia = test system: CCRF-CEM leukemia
SK-MEL-5 melanoma = test system: SK-MEL-5 melanoma
OVCAR-8 ovarian = test system: OVCAR-8 ovarian
NCI-H460 lung = test system: NCI-H460 lung
KM12 colon = test system: KM12 colon
NCI-H226 lung = test system: NCI-H226 lung
UO-31 renal = test system: UO-31 renal
OVCAR-4 ovarian = test system: OVCAR-4 ovarian
TK-10 renal = test system: TK-10 renal
CAKI-1 renal = test system: CAKI-1 renal
NCI-H23 lung = test system: NCI-H23 lung
NCI/ADR-RES ovarian = test system: NCI/ADR-RES ovarian

CC1(C)CC[C@]23CC[C@]4(C)[C@H](CC[C@@H]5[C@@]6(C)CC[C@H](N)C(C)(C)[C@@H]6CC[C@]54C)[C@H]2[C@H]1OC3
GI50 (SF-295 CNS): 1.75 µM
TGI (SF-295 CNS): 3.27 µM
GI50 (ACHN renal): 1.82 µM
TGI (ACHN renal): 3.26 µM
GI50 (SK-MEL-2 melanoma): 2.98 µM
TGI (SK-MEL-2 melanoma): 10.1 µM
GI50 (MDA-MB-435): 1.91 µM
TGI (MDA-MB-435): 3.73 µM
GI50 (UACC-257 melanoma): 15.3 µM
TGI (UACC-257 melanoma): 35.6 µM
GI50 (SF-539 CNS): 1.74 µM
TGI (SF-539 CNS): 3.22 µM
GI50 (HCC-2998 colon): 1.76 µM
TGI (HCC-2998 colon): 3.33 µM
GI50 (SK-MEL-28 melanoma): 1.83 µM
TGI (SK-MEL-28 melanoma): 3.93 µM
GI50 (EKVX NSCLC): 1.83 µM
TGI (EKVX NSCLC): 3.84 µM
GI50 (HL-60(TB) leukemia): 1.67 µM
TGI (HL-60(TB) leukemia): 3.78 µM
GI50 (SF-268 CNS): 5.98 µM
TGI (SF-268 CNS): 23.5 µM
GI50 (SNB-75 CNS): 17 µM
TGI (SNB-75 CNS): 38.9 µM
GI50 (MCF7 breast): 1.62 µM
TGI (MCF7 breast): 3.32 µM
GI50 (T-47D breast): 3.75 µM
TGI (T-47D breast): 19.3 µM
GI50 (OVCAR-3 ovarian): 1.83 µM
TGI (OVCAR-3 ovarian): 3.48 µM
GI50 (DU-145 prostate): 1.89 µM
TGI (DU-145 prostate): 3.67 µM
GI50 (A549 NSCLC): 1.98 µM
TGI (A549 NSCLC): 4.36 µM
GI50 (SNB-19 CNS): 1.9 µM
TGI (SNB-19 CNS): 3.72 µM
GI50 (SW-620 colon): 2 µM
TGI (SW-620 colon): 4.1 µM
GI50 (HCT-15 colon): 1.62 µM
TGI (HCT-15 colon): 3.15 µM
GI50 (SK-OV-3 ovarian): 14.1 µM
TGI (SK-OV-3 ovarian): 28.7 µM
GI50 (RXF 393 renal): 1.58 µM
TGI (RXF 393 renal): 2.94 µM
GI50 (MOLT-4 leukemia): 2.17 µM
TGI (MOLT-4 leukemia): 7.3 µM
GI50 (HOP-62 NSCLC): 1.88 µM
TGI (HOP-62 NSCLC): 3.78 µM
GI50 (BT-549 breast): 15.4 µM
TGI (BT-549 breast): 29 µM
GI50 (U251 CNS): 1.79 µM
TGI (U251 CNS): 3.66 µM
GI50 (HOP-92 NSCLC): 2.5 µM
TGI (HOP-92 NSCLC): 6.59 µM
GI50 (RPMI-8226 leukemia): 2.73 µM
TGI (RPMI-8226 leukemia): 7.21 µM
GI50 (HS 578T breast): 2.58 µM
TGI (HS 578T breast): 6.9 µM
GI50 (UACC-62 melanoma): 1.85 µM
TGI (UACC-62 melanoma): 3.9 µM
GI50 (SR leukemia): 0.663 µM
TGI (SR leukemia): 4.56 µM
GI50 (786-0 renal): 1.66 µM
TGI (786-0 renal): 3.26 µM
GI50 (COLO 205 colon): 1.91 µM
TGI (COLO 205 colon): 3.62 µM
GI50 (NCI-H522 lung): 2.98 µM
TGI (NCI-H522 lung): 9.75 µM
GI50 (HCT-116 colon): 1.74 µM
TGI (HCT-116 colon): 3.2 µM
GI50 (K-562 leukemia): 2.08 µM
TGI (K-562 leukemia): 5.94 µM
GI50 (M14 melanoma): 1.92 µM
TGI (M14 melanoma): 3.88 µM
GI50 (SN12C renal): 1.79 µM
TGI (SN12C renal): 3.57 µM
GI50 (A498 renal): 11.7 µM
TGI (A498 renal): 27.1 µM
GI50 (OVCAR-5 ovarian): 1.87 µM
TGI (OVCAR-5 ovarian): 3.95 µM
GI50 (PC-3 prostate): 2.34 µM
TGI (PC-3 prostate): 6.14 µM
GI50 (CCRF-CEM leukemia): 2.11 µM
TGI (CCRF-CEM leukemia): 36.3 µM
GI50 (SK-MEL-5 melanoma): 1.74 µM
TGI (SK-MEL-5 melanoma): 3.2 µM
GI50 (OVCAR-8 ovarian): 2.57 µM
TGI (OVCAR-8 ovarian): 6.84 µM
GI50 (NCI-H460 lung): 1.85 µM
TGI (NCI-H460 lung): 3.6 µM
GI50 (KM12 colon): 1.92 µM
TGI (KM12 colon): 3.65 µM
GI50 (NCI-H226 lung): 5.22 µM
TGI (NCI-H226 lung): 31.1 µM
GI50 (UO-31 renal): 1.5 µM
TGI (UO-31 renal): 2.97 µM
GI50 (OVCAR-4 ovarian): 2.75 µM
TGI (OVCAR-4 ovarian): 7.48 µM
GI50 (TK-10 renal): 15.7 µM
TGI (TK-10 renal): 31.1 µM
GI50 (CAKI-1 renal): 1.69 µM
TGI (CAKI-1 renal): 3.19 µM

CNC(=O)c1c(NC(=O)c2ccc(F)cc2F)sc2c1CCC(=O)C2
GI50 (SF-295 CNS): 1.31 µM
TGI (SF-295 CNS): 5.71 µM
GI50 (ACHN renal): 0.349 µM
TGI (ACHN renal): 1.08 µM
GI50 (EKVX NSCLC): 0.253 µM
TGI (EKVX NSCLC): > 100 µM
GI50 (SF-268 CNS): 0.428 µM
TGI (SF-268 CNS): > 100 µM
GI50 (SNB-75 CNS): 0.722 µM
TGI (SNB-75 CNS): 3.3 µM
GI50 (SNB-19 CNS): 0.44 µM
TGI (SNB-19 CNS): > 52.4 µM
GI50 (SK-OV-3 ovarian): 2.59 µM
TGI (SK-OV-3 ovarian): 9.62 µM
GI50 (RXF 393 renal): 0.182 µM
TGI (RXF 393 renal): 1.73 µM
GI50 (MOLT-4 leukemia): 0.23 µM
TGI (MOLT-4 leukemia): > 100 µM
GI50 (HOP-62 NSCLC): 1.13 µM
TGI (HOP-62 NSCLC): > 100 µM
GI50 (BT-549 breast): 0.345 µM
TGI (BT-549 breast): 2.86 µM
GI50 (U251 CNS): 0.288 µM
TGI (U251 CNS): > 100 µM
GI50 (RPMI-8226 leukemia): 0.227 µM
TGI (RPMI-8226 leukemia): > 100 µM
GI50 (HS 578T breast): 0.439 µM
TGI (HS 578T breast): 5.91 µM
GI50 (SR leukemia): 0.089 µM
TGI (SR leukemia): > 100 µM
GI50 (786-0 renal): 0.39 µM
TGI (786-0 renal): 13.6 µM
GI50 (K-562 leukemia): 0.133 µM
TGI (K-562 leukemia): > 100 µM
GI50 (CCRF-CEM leukemia): 0.146 µM
TGI (CCRF-CEM leukemia): > 100 µM
GI50 (OVCAR-8 ovarian): 0.288 µM
TGI (OVCAR-8 ovarian): > 100 µM
GI50 (NCI-H23 lung): 0.251 µM
TGI (NCI-H23 lung): > 100 µM
GI50 (TK-10 renal): 0.431 µM
TGI (TK-10 renal): 17.7 µM
GI50 (CAKI-1 renal): 0.236 µM
TGI (CAKI-1 renal): 1.04 µM
GI50 (NCI/ADR-RES ovarian): 0.265 µM
TGI (NCI/ADR-RES ovarian): > 100 µM
